In US20240409585A1, “MACROCYCLIC IMMUNOMODULATORS” (priority 2021, published 2024) one finds IC50 data, which are given here for twelve molecules.

The target in the test is T1, Alexa fluor-647 labeled human PD-L1-Ig binding to Jurkat cell line over-expressing human PD-1 (Homo sapiens, UniProt Q15116).
T1 construct: expressed in transfected cells; host or cells: Jurkat
The test is described as follows: Jurkat-PD-1 Cell Binding High-Content Screening Assay (CBA): Method 3 (Alexa fluor-647 labeled PD-L1-Ig). Particulars: Jurkat-PD-1 cells, Alexa fluor-647 labeled PD-L1-Ig 177 nM. The method in brief:
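Jurkat cells over-expressing human PD-1 in RPMI/10% FCS were preincubated 2 h at 37 °C with compound, then exposed 1 h to Alexa fluor-647 labeled human PD-L1-Ig (177 nM final). Cells fixed in 4% paraformaldehyde with Hoechst 33342 and binding quantified by high-content imaging.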

[1] abbreviates: head μM, read-out: CBA Method 3 μM.

Like-named read-outs stand apart in the source and are kept apart here. Numbered stars: 1 amine (or outer) side, 2 acyl side, 3 side chain; on linkers, the order of the positions; unused ones are H or OH. Bridge positions count the residues as written; N and C are the ends. Square brackets hold non-standard residues; d marks the D form. Peptide text beside a SMILES is read from it. * marks the point of attachment. Bip(4'-COOH) = N[C@@H](Cc1ccc(-c2ccc(C(=O)O)cc2)cc1)C(=O)O; Bip(4'-NHAc) = CC(=O)Nc1ccc(-c2ccc(C[C@H](N)C(=O)O)cc2)cc1; X52 = Nc1ccc(-c2ccc(C[C@H](N[*:1])C(=O)[*:2])cc2)cn1; Phe(3,4,5-F3) = N[C@@H](Cc1cc(F)c(F)c(F)c1)C(=O)O; Phe(3-CF3) = N[C@@H](Cc1cccc(C(F)(F)F)c1)C(=O)O; Ala(morpholin-4-yl) = N[C@@H](CN1CCOCC1)C(=O)O; Phe(4-COOH) = N[C@@H](Cc1ccc(C(=O)O)cc1)C(=O)O; Bip = N[C@@H](Cc1ccc(-c2ccccc2)cc1)C(=O)O; Abu(3R-NH2) = C[C@@H](N)[C@H](N)C(=O)O; Phe(3-Me) = Cc1cccc(C[C@H](N)C(=O)O)c1; Val(3-OH) = CC(C)(O)[C@H](N)C(=O)O; hPhe = N[C@@H](CCc1ccccc1)C(=O)O; Aad = N[C@@H](CCCC(=O)O)C(=O)O; Cha = N[C@@H](CC1CCCCC1)C(=O)O; Carboxymethyl = O=C(O)C*; NMeA = CN[C@@H](C)C(=O)O; Orn = NCCC[C@H](N)C(=O)O; Dab = NCC[C@H](N)C(=O)O

T1 sequence (Q15116 25-288): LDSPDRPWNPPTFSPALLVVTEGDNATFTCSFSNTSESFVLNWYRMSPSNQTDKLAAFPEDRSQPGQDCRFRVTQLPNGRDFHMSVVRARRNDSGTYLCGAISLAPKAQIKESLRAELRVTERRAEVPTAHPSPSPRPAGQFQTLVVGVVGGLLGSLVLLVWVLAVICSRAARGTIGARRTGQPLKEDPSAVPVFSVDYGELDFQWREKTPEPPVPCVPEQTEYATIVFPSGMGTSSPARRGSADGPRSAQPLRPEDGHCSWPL

Take `CC(=O)Nc1ccc(-c2ccc(C[C@@H]3NC(=O)[C@H](Cc4cccc(C)c4)NC(=O)[C@H](CC(=O)O)NC(=O)[C@H](Cc4ccc(-c5ccc(C(=O)O)cc5)cc4)NC(=O)[C@H](CN4CCOCC4)NC(=O)CSC[C@@H](C(=O)N[C@@H](CCN)C(N)=O)NC(=O)[C@H](CCC(=O)O)NC(=O)[C@H](C(C)C)NC(=O)[C@H](CC4CCCCC4)NC(=O)[C@H](CC(N)=O)NC(=O)[C@@H](CC(C)C)NC(=O)[C@H](C)N(C)C(=O)[C@H](Cc4ccc(OCC(=O)O)cc4)NC(=O)[C@H](Cc4ccc(-c5ccccc5)cc4)NC3=O)cc2)cc1` [Example 5127] ({CH2CO}-[Ala(morpholin-4-yl)][Bip(4'-COOH)]D[Phe(3-Me)][Bip(4'-NHAc)][Bip]Y(Carboxymethyl)[NMeA][dL]N[Cha]VEC[Dab]-NH2; thioether N-14): the IC50 under setting [1] was determined as 0.02 µM.

As to `CC(C)C[C@H]1NC(=O)[C@H](C)N(C)C(=O)[C@H](CCC(N)=O)NC(=O)[C@H](Cc2ccc(-c3ccccc3)cc2)NC(=O)[C@H](Cc2ccc(-c3ccc(C(=O)O)cc3)cc2)NC(=O)[C@H](Cc2cccc(C(F)(F)F)c2)NC(=O)[C@H](CC(=O)O)NC(=O)[C@H](Cc2ccc(C(=O)O)cc2)NC(=O)[C@H](Cc2ccc(OCC(=O)O)cc2)NC(=O)CSC[C@@H](C(=O)N[C@@H](CCN)C(N)=O)NC(=O)[C@H](CCCN)NC(=O)[C@H](C(C)C)NC(=O)[C@H](CC2CCCCC2)NC(=O)[C@H](CCN)NC1=O` [Example 5167] ({CH2CO}-Y(Carboxymethyl)[Phe(4-COOH)]D[Phe(3-CF3)][Bip(4'-COOH)][Bip]Q[NMeA][dL][Dab][Cha]V[Orn]C[Dab]-NH2; thioether N-14), where the note is “nM, read-out: CBA Method 3”, the IC50 was 0.0003 µM.

As for `Cc1cccc(C[C@@H]2NC(=O)[C@H](CC(=O)O)NC(=O)[C@H](Cc3ccc(OCC(=O)O)cc3)NC(=O)[C@H](Cc3cc(F)c(F)c(F)c3)NC(=O)CSC[C@@H](C(=O)N[C@@H](CCN)C(N)=O)NC(=O)[C@H](CCCN)NC(=O)[C@H](C(C)C)NC(=O)[C@H](CC3CCCCC3)NC(=O)[C@H](CCN)NC(=O)[C@@H](CC(C)C)NC(=O)[C@H](C)N(C)C(=O)[C@H](CCC(N)=O)NC(=O)[C@H](Cc3ccc(-c4ccccc4)cc3)NC(=O)[C@H](Cc3ccc(C(=O)O)cc3)NC2=O)c1` [Example 5287] ({CH2CO}-[Phe(3,4,5-F3)]Y(Carboxymethyl)D[Phe(3-Me)][Phe(4-COOH)][Bip]Q[NMeA][dL][Dab][Cha]V[Orn]C[Dab]-NH2; thioether N-14), the IC50 under setting [1] amounted to 0.27 µM.

As to `CC(=O)Nc1ccc(-c2ccc(C[C@@H]3NC(=O)[C@H](Cc4cccc(C)c4)NC(=O)[C@H](CC(=O)O)NC(=O)[C@H](Cc4ccc(C(=O)O)cc4)NC(=O)[C@H](CN4CCOCC4)NC(=O)CSC[C@@H](C(=O)N[C@@H](CCN)C(N)=O)NC(=O)[C@H](CCCC(=O)O)NC(=O)[C@H](C(C)C)NC(=O)[C@H](CC4CCCCC4)NC(=O)[C@H](CCN)NC(=O)[C@@H](CC(C)C)NC(=O)[C@H](C)N(C)C(=O)[C@H](Cc4ccc(C(=O)O)cc4)NC(=O)[C@H](Cc4ccc(-c5ccccc5)cc4)NC3=O)cc2)cc1` [Example 5255] ({CH2CO}-[Ala(morpholin-4-yl)][Phe(4-COOH)]D[Phe(3-Me)][Bip(4'-NHAc)][Bip][Phe(4-COOH)][NMeA][dL][Dab][Cha]V[Aad]C[Dab]-NH2; thioether N-14), the IC50 under setting [1] was determined as 0.0022 µM.

With `CC(C)C[C@@H]1NC(=O)[C@H](Cc2c[nH]c3ccccc23)NC(=O)[C@H](CC(=O)O)NC(=O)[C@H](Cc2ccc(-c3ccc(C(=O)O)cc3)cc2)NC(=O)[C@H](CN2CCOCC2)NC(=O)CSC[C@@H](C(=O)N[C@@H](CCN)C(N)=O)NC(=O)[C@H](CCC(=O)O)NC(=O)[C@H](C(C)C)NC(=O)[C@H](CC(C)C)NC(=O)[C@H](CC(N)=O)NC(=O)[C@@H](CC(C)C)NC(=O)[C@H](C)N(C)C(=O)[C@H](C(C)C)NC(=O)[C@H](Cc2ccc(-c3ccccc3)cc2)NC1=O` [Example 5124] ({CH2CO}-[Ala(morpholin-4-yl)][Bip(4'-COOH)]DWL[Bip]V[NMeA][dL]NLVEC[Dab]-NH2; thioether N-14), the IC50 (nM, read-out: CBA Method 3) is 0.0026 µM.

`Cc1cccc(C[C@@H]2NC(=O)[C@H](CC(=O)O)NC(=O)[C@H](Cc3ccc(OCC(=O)O)cc3)NC(=O)[C@H](CCC(=O)O)NC(=O)CSC[C@@H](C(=O)N[C@@H](CCN)C(N)=O)NC(=O)[C@H](CCCN)NC(=O)[C@H](C(C)C)NC(=O)[C@H](CC3CCCCC3)NC(=O)[C@H](CCN)NC(=O)[C@@H](CC(C)C)NC(=O)[C@H](C)N(C)C(=O)[C@H](CCC(N)=O)NC(=O)[C@H](Cc3ccc(-c4ccccc4)cc3)NC(=O)[C@H](Cc3ccc(C(=O)O)cc3)NC2=O)c1` [Example 5170] ({CH2CO}-EY(Carboxymethyl)D[Phe(3-Me)][Phe(4-COOH)][Bip]Q[NMeA][dL][Dab][Cha]V[Orn]C[Dab]-NH2; thioether N-14): the IC50 (nM, read-out: CBA Method 3) was 0.0059 µM.

Consider `CC(C)C[C@H]1NC(=O)[C@H](C)N(C)C(=O)[C@H](CCC(N)=O)NC(=O)[C@H](Cc2ccc(-c3ccccc3)cc2)NC(=O)[C@H](CCc2ccccc2)NC(=O)[C@H](Cc2cccc(C(F)(F)F)c2)NC(=O)[C@H](CC(=O)O)NC(=O)[C@H](CCC(N)=O)NC(=O)[C@H]([C@@H](C)N)NC(=O)CSC[C@@H](C(=O)N[C@@H](CCN)C(N)=O)NC(=O)[C@H](CCCN)NC(=O)[C@H](C(C)C)NC(=O)[C@H](CC2CCCCC2)NC(=O)[C@H](CCN)NC1=O` [Example 5247] ({CH2CO}-[Abu(3R-NH2)]QD[Phe(3-CF3)][hPhe][Bip]Q[NMeA][dL][Dab][Cha]V[Orn]C[Dab]-NH2; thioether N-14), for which the IC50 (nM, read-out: CBA Method 3) is 0.0017 µM.

Regarding `Cc1cccc(C[C@@H]2NC(=O)[C@H](CC(=O)O)NC(=O)[C@H](Cc3ccc(-c4ccc(C(=O)O)cc4)cc3)NC(=O)[C@H](CN3CCOCC3)NC(=O)CSC[C@@H](C(=O)N[C@@H](CCN)C(N)=O)NC(=O)[C@H](Cc3cnc[nH]3)NC(=O)[C@H](C(C)(C)O)NC(=O)[C@H](CC3CCCCC3)NC(=O)[C@H](CCN)NC(=O)[C@@H](CC(C)C)NC(=O)[C@H](C)N(C)C(=O)[C@H](Cc3ccc(C(=O)O)cc3)NC(=O)[C@H](Cc3ccc(-c4ccccc4)cc3)NC(=O)[C@H](Cc3ccc(-c4ccc(C(=O)O)cc4)cc3)NC2=O)c1` [Example 5133] ({CH2CO}-[Ala(morpholin-4-yl)][Bip(4'-COOH)]D[Phe(3-Me)][Bip(4'-COOH)][Bip][Phe(4-COOH)][NMeA][dL][Dab][Cha][Val(3-OH)]HC[Dab]-NH2; thioether N-14), the IC50 under setting [1] is 0.2 µM.

`CC(=O)Nc1ccc(-c2ccc(C[C@@H]3NC(=O)[C@H](Cc4cccc(C)c4)NC(=O)[C@H](CC(=O)O)NC(=O)[C@H](Cc4ccc(C(=O)O)cc4)NC(=O)[C@H](CC4CCCCC4)NC(=O)CSC[C@@H](C(=O)N[C@@H](CCN)C(N)=O)NC(=O)[C@H](CCC(=O)O)NC(=O)[C@H](C(C)C)NC(=O)[C@H](CC4CCCCC4)NC(=O)[C@H](CCN)NC(=O)[C@@H](CC(C)C)NC(=O)[C@H](C)N(C)C(=O)[C@H](Cc4ccc(OCC(=O)O)cc4)NC(=O)[C@H](Cc4ccc(-c5ccccc5)cc4)NC3=O)cc2)cc1` [Example 5202] ({CH2CO}-[Cha][Phe(4-COOH)]D[Phe(3-Me)][Bip(4'-NHAc)][Bip]Y(Carboxymethyl)[NMeA][dL][Dab][Cha]VEC[Dab]-NH2; thioether N-14): under “nM, read-out: CBA Method 3”, the IC50 was 0.0049 µM.

Turning to `Cc1cccc(C[C@@H]2NC(=O)[C@H](CC(=O)O)NC(=O)[C@H](Cc3ccc(OCC(=O)O)cc3)NC(=O)[C@H](CC3CCCCC3)NC(=O)CSC[C@@H](C(=O)N[C@@H](CCN)C(N)=O)NC(=O)[C@H](CCCN)NC(=O)[C@H](C(C)C)NC(=O)[C@H](CC3CCCCC3)NC(=O)[C@H](CCN)NC(=O)[C@@H](CC(C)C)NC(=O)[C@H](C)N(C)C(=O)[C@H](CCC(N)=O)NC(=O)[C@H](Cc3ccc(-c4ccccc4)cc3)NC(=O)[C@H](Cc3ccc(C(=O)O)cc3)NC2=O)c1` [Example 5174] ({CH2CO}-[Cha]Y(Carboxymethyl)D[Phe(3-Me)][Phe(4-COOH)][Bip]Q[NMeA][dL][Dab][Cha]V[Orn]C[Dab]-NH2; thioether N-14), the IC50 under setting [1] came out at 0.01 µM.

For `Cc1cccc(C[C@@H]2NC(=O)[C@H](CC(=O)O)NC(=O)[C@H](Cc3ccc(OCC(=O)O)cc3)NC(=O)[C@H](C)NC(=O)CSC[C@@H](C(=O)N[C@@H](CCN)C(N)=O)NC(=O)[C@H](CCCN)NC(=O)[C@H](C(C)C)NC(=O)[C@H](CC3CCCCC3)NC(=O)[C@H](CCN)NC(=O)[C@@H](CC(C)C)NC(=O)[C@H](C)N(C)C(=O)[C@H](CCC(N)=O)NC(=O)[C@H](Cc3ccc(-c4ccccc4)cc3)NC(=O)[C@H](Cc3ccc(C(=O)O)cc3)NC2=O)c1` [Example 5266] ({CH2CO}-AY(Carboxymethyl)D[Phe(3-Me)][Phe(4-COOH)][Bip]Q[NMeA][dL][Dab][Cha]V[Orn]C[Dab]-NH2; thioether N-14), the IC50 (nM, read-out: CBA Method 3) was 0.002 µM.

Regarding `Cc1cccc(C[C@@H]2NC(=O)[C@H](CC(=O)O)NC(=O)[C@H](Cc3ccc(OCC(=O)O)cc3)NC(=O)[C@H](CN3CCOCC3)NC(=O)CSC[C@@H](C(=O)N[C@@H](CCN)C(N)=O)NC(=O)[C@H](CCCN)NC(=O)[C@H](C(C)C)NC(=O)[C@H](CC3CCCCC3)NC(=O)[C@H](CCN)NC(=O)[C@@H](CC(C)C)NC(=O)[C@H](C)N(C)C(=O)[C@H](CCC(N)=O)NC(=O)[C@H](Cc3ccc(-c4ccccc4)cc3)NC(=O)[C@H](Cc3ccc(-c4ccc(N)nc4)cc3)NC2=O)c1` [Example 5104] ({CH2CO}-[Ala(morpholin-4-yl)]Y(Carboxymethyl)D[Phe(3-Me)][X52][Bip]Q[NMeA][dL][Dab][Cha]V[Orn]C[Dab]-NH2; thioether N-14), the IC50 under setting [1] turned out to be 0.05 µM.
